Usually IC50 stands for the concentration needed to halve the response being measured. As usually defined, the Ki is the equilibrium dissociation constant of an inhibitor or competing ligand from its target. A higher Ki goes with weaker binding.

Test [1] deals with CD8+ T cells in human whole blood. Briefly: Measurement of pCREB in CD8+ T cells in human whole blood. It counts as cell-based. The settings on record: T-cell, 1 h; heparinised human whole blood, rolipram, 3 μM NECA, 60 min, phospho-CREB in CD8+ T cells by FACS. In a few lines:
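Heparinised human whole blood preincubated 20 min at 37 °C with serially diluted A2a antagonists plus rolipram, then stimulated 60 min with 3 μM NECA (final). After fixation and RBC lysis, permeabilized leukocytes stained for phospho-CREB and CD8; pCREB in CD8+ T cells read by flow cytometry.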
In general terms: Flow cytometry measures light scatter and fluorescence of single cells or particles in a stream.

Test [2] addresses T1, human Adenosine A2b receptor (Homo sapiens, UniProt P29275).
T1 construct: expressed in transfected cells; host or cells: CHO cell membranes
T1 sequence (P29275 1-332): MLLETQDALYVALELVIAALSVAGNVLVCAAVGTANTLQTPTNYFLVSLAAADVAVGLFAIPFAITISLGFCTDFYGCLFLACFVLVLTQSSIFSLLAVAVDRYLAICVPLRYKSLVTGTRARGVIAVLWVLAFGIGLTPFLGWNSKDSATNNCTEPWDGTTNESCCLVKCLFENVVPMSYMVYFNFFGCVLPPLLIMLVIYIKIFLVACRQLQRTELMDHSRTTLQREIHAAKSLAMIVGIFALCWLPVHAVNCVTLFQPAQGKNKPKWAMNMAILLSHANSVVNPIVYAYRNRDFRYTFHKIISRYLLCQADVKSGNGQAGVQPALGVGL
As to the kind of experiment: Adenosine receptor TR-FRET binding assay (CA200645 displacement), A2b. The settings on record: 30 nM CA200645, CHO cell membranes, 2 hours at room temperature. Background: TR-FRET usually uses a lanthanide donor and a delayed reading to cut background.

The target of test [3] is T2, human Adenosine A3 receptor (Homo sapiens, UniProt P0DMS8).
T2 sequence (P0DMS8 1-318): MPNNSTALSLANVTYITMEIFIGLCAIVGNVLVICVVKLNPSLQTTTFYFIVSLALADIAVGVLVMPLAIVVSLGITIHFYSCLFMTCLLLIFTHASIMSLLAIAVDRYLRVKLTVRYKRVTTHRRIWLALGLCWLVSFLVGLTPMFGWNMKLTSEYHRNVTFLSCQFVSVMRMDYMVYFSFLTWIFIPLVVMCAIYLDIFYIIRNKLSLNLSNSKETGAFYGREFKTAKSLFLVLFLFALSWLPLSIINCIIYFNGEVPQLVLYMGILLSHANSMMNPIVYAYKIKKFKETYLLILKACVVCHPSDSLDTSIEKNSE
As to the kind of experiment: Adenosine receptor TR-FRET binding assay (CA200645 displacement), A3.

The target in test [4] is T3, human Adenosine A2a receptor (Homo sapiens, UniProt P29274).
T3 construct: expressed in transfected cells; host or cells: CHO cell membranes
Briefly: Adenosine receptor TR-FRET binding assay (CA200645 displacement), A2a. The conditions noted are these: 100 nM CA200645, CHO cell membranes, 2 hours at room temperature.
Procedure: All FRET binding experiments were conducted at room temperature in white 384-well plates, in assay binding buffer containing 1×LabMed (Cisbio, France), 100 μg/mL saponin, 1% DMSO and 0.02% pluronic acid. Binding of the fluorescently labelled Adenosine receptor antagonist XAC (CA200645, FRET acceptor) to terbium-labelled A1, A2a, A2b and A3 adenosine receptors (FRET donors) was detected by time-resolved FRET due to the close proximity of the donor and acceptor in a binding event. To investigate the ability of unlabelled test compounds to bind to Adenosine A1, A2a, A2b and A3 receptors, dose response curves were constructed that determined the ability of a range of concentrations to inhibit the binding of 30 nM CA200645 to the A2b receptor and 100 nM CA200645 to the A1, A2a, and A3 receptor.
Serial dilution (1:3 dilutions) of test compounds in neat DMSO and transfer of a 400 nL sample of test compound into the assay plate was carried out using the Mosquito (TTP Labtech, UK). The compound samples were incubated for 2 hours at room temperature with a fixed concentration of CA200645 defined for each receptor (see above) and CHO cell membranes containing the human Adenosine A1 (0.5 μg/well), A2a (0.3 μg/well), A2b (1 μg/well) or A3 (1 μg/well) receptor in 40 μL of assay buffer. Total and non-specific binding of CA200645 was determined in the absence and presence of 10 μM XAC, respectively. Following 2 hours incubation, the level of CA200645 binding was detected on a Pherastar FSX (BMG Labtech, Germany) using standard TR-FRET settings. The terbium donor was excited with three laser flashes at a wavelength of 337 nm, and donor and acceptor emission was detected at 620 nm and 665 nm wavelengths, respectively. FRET ratios were obtained by multiplying the acceptor/donor ratio value by 10,000. Specific binding was determined by subtracting the non-specific binding FRET ratio from the total binding FRET ratio. Compound IC50 curves were analysed using GraphPad Prism 7.0 (GraphPad, USA) and Ki affinity values were determined from the obtained IC50 values using the method of Cheng and Prusoff.

For test [5], the target named is T4, human Adenosine A1 receptor (Homo sapiens, UniProt P30542).
T4 sequence (P30542 1-326): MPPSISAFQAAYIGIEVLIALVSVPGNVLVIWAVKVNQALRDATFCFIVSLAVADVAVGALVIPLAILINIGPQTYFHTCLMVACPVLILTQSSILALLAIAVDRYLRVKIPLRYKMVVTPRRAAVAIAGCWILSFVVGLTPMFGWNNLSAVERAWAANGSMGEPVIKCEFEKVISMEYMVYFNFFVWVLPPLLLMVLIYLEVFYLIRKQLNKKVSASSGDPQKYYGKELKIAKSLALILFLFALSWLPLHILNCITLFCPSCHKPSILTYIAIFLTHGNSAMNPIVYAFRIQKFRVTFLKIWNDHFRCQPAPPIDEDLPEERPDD
Briefly: Adenosine receptor TR-FRET binding assay (CA200645 displacement), A1.

In a further test the test system is human PBMCs. Briefly: CD3/CD28 stimulated IL-2 release NECA reversal assay in human PBMCs.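 Note: dose-response as % inhibition where 100% equals no-NECA control wells with CD3/CD28.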 The format is cell-based. The settings on record: PBMC, CD3/CD28 antibody stimulated, 1 uM NECA, 24 hours, IL-2 in culture supernatant. In a few lines: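 PBMCs from citrated donor blood, 50,000 cells/well on plate-bound CD3 antibody (1 ug/ml), with 1 ug/ml CD28 antibody, 1 uM NECA and antagonist at 0.003-10 μM final. After 24 h at 37° C, supernatant IL-2 was measured by MSD immunoassay.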

T3 sequence (P29274 whole entry): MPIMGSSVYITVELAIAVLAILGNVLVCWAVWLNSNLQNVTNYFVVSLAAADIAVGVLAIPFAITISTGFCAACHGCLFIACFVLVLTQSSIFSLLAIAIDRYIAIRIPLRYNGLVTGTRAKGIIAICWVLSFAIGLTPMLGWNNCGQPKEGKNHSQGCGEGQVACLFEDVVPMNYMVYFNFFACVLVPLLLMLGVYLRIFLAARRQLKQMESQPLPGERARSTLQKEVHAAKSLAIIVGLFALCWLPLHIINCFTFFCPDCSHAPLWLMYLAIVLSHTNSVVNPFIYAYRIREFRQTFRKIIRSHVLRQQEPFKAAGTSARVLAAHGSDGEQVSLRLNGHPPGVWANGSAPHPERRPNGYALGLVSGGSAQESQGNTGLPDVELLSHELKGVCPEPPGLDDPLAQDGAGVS

As to `Cc1cc(-c2c(-c3cccc(C#N)c3)nn3ccc(NC(N)=O)nc23)cc(Cl)n1` [Example 30, [3-(2-Chloro-6-methyl-4-pyridyl)-2-(3-cyanophenyl)pyrazolo[1,5-a]pyrimidin-5-yl]urea], the IC50 in test [1] stood at 640 nM; in the test with human PBMCs it was 21 nM. For the same molecule, the Ki is 5 nM in test [2], over 1000 nM in test [3], 0.8 nM in test [4] and 57 nM in test [5].
Turning to `Cc1cc(-c2c(-c3cccc(C#N)c3)nn3ccc(NC(N)=O)nc23)cc(C)n1` [Example 30.3, [2-(3-Cyanophenyl)-3-(2,6-dimethyl-4-pyridyl)pyrazolo[1,5-a]pyrimidin-5-yl]urea], the values for the IC50 (in test [1]; with human PBMCs) were 120 nM and 50 nM, respectively. Besides, the Ki is 14 nM in test [2], over 1000 nM in test [3], 1.8 nM in test [4] and 47 nM in test [5].
For the molecule `Cc1cc(-c2c(-c3cccc(C#N)c3)nn3ccc(N/C(=N\C#N)NC(C)C)nc23)cc(Cl)n1` [Example 32.1, 1-[3-(2-Chloro-6-methyl-4-pyridyl)-2-(3-cyanophenyl)pyrazolo[1,5-a]pyrimidin-5-yl]-2-cyano-3-isopropyl-guanidine], the IC50 came to 1180 nM in test [1] and 9 nM with human PBMCs. In addition, the Ki in test [2] amounted to 1 nM; in test [3], 115 nM; in test [4] it was 0.2 nM; in test [5], 10 nM.
On to `Cc1cc(-c2c(-c3cccc(C#N)c3)nn3ccc(N/C(=N\C#N)NCC(C)(C)O)nc23)cc(Cl)n1` [Example 32.2, 1-[3-(2-Chloro-6-methyl-4-pyridyl)-2-(3-cyanophenyl)pyrazolo[1,5-a]pyrimidin-5-yl]-2-cyano-3-(2-hydroxy-2-methyl-propyl)quanidine], for which the IC50 in test [1] turned out to be 490 nM; in the test on human PBMCs it was 16 nM. In addition, the Ki in test [2] was 5 nM; in test [3] it was over 1000 nM; in test [4], 0.8 nM; in test [5], 29 nM.
In the case of `Cc1cccnc1CNc1ccn2nc(-c3ccco3)c(C#N)c2n1` [Example 37, 2-(2-Furyl)-5-[(3-methyl-2-pyridyl)methylamino]pyrazolo[1,5-a]pyrimidine-3-carbonitrile], the IC50 came to 1460 nM in test [1] and 13 nM with human PBMCs. Further, the Ki in test [2] stood at 22 nM; in test [3] it was 186 nM; in test [4] it was 0.3 nM; in test [5], 5 nM.
As to `Cc1cc(-c2c(-c3cccc(C#N)c3)nn3ccc(C(=O)N[C@@H](C)C(C)(C)O)nc23)cc(C)n1` [Example 92, 2-(3-Cyanophenyl)-3-(2,6-dimethyl-4-pyridyl)-N-[(1S)-2-hydroxy-1,2-dimethyl-propyl]pyrazolo[1,5-a]pyrimidine-5-carboxamide], the IC50 amounted to 20 nM in test [1] and 4 nM with human PBMCs. Besides, the Ki in test [2] was 37 nM; in test [3], 1470 nM; in test [4], 0.4 nM; in test [5], 107 nM.
Turning to `Cc1cc(-c2c(-c3cccc(C#N)c3)nn3ccc(C(=O)NCC(C)(O)CO)nc23)cc(C)n1` (stereo not drawn) [Example 92.1], the IC50 in test [1] stood at 110 nM; in the test on human PBMCs, 14 nM. Besides, the Ki in test [2] is 4 nM; in test [3], over 1000 nM; in test [4], 0.5 nM; in test [5], 222 nM.
With `Cc1cc(-c2c(-c3cccc(C#N)c3)nn3ccc(C(=O)NC45CC(O)(C4)C5)nc23)cc(C)n1` [Example 92.2], the IC50 amounted to 350 nM in test [1] and 17 nM in the test with human PBMCs. Besides, the Ki in test [2] was 25 nM; in test [3], over 1000 nM; in test [4] it was 1.6 nM; in test [5], 324 nM.
As for `Cc1cc(-c2c(-c3cccc(C#N)c3)nn3ccc(C(=O)NCC4(O)COC4)nc23)cc(C)n1` [Example 92.3], the IC50 in test [1] is 260 nM; with human PBMCs, 11 nM. For the same molecule, the Ki in test [2] was 7 nM; in test [3], over 1000 nM; in test [4], 2 nM; in test [5] it was 212 nM.
As for `Cc1cc(-c2c(-c3cccc(C#N)c3)nn3ccc(C(=O)NCC4CCNC(=O)C4)nc23)cc(C)n1` (stereo not drawn) [Example 92.4], the IC50 in test [1] was determined as 830 nM; with human PBMCs it was 33 nM. Also, the Ki in test [2] is 23 nM; in test [3], over 1000 nM; in test [4] it was 4.4 nM; in test [5], 362 nM.
As for `Cc1cc(-c2c(-c3cccc(C#N)c3)nn3ccc(NC(=O)C(C)(C)O)nc23)cc(Cl)n1` [Example 94, N-[3-(2-Chloro-6-methyl-4-pyridyl)-2-(3-cyanophenyl)pyrazolo[1,5-a]pyrimidin-5-yl]-2-hydroxy-2-methyl-propanamide], the IC50 in test [1] was 1720 nM; in the test on human PBMCs it was 27 nM. The Ki in test [2] is 3 nM; in test [3] it was over 1000 nM; in test [4], 1 nM; in test [5], 124 nM.
Consider `CC(=O)Nc1ccn2nc(-c3cccc(C#N)c3)c(-c3cc(C)nc(Cl)c3)c2n1` [Example 94.1, N-[3-(2-Chloro-6-methyl-4-pyridyl)-2-(3-cyanophenyl)pyrazolo[1,5-a]pyrimidin-5-yl]acetamide], for which the IC50 in test [1] turned out to be 750 nM; in the test with human PBMCs, 26 nM. In addition, the Ki in test [2] was 14 nM; in test [3] it was over 1000 nM; in test [4], 1.8 nM; in test [5] it was 99 nM.
Consider `Cc1cc(-c2c(-c3cccc(C#N)c3)nn3ccc(NC(=O)CC(C)(C)O)nc23)cc(Cl)n1` [Example 94.2, N-[3-(2-chloro-6-methyl-4-pyridyl)-2-(3-cyanophenyl)pyrazolo[1,5-a]pyrimidin-5-yl]-3-hydroxy-3-methyl-butanamide], for which the IC50 amounted to 530 nM in test [1] and 20 nM in the test on human PBMCs. Moreover, the Ki in test [2] was determined as 7 nM; in test [3], 2050 nM; in test [4], 1.2 nM; in test [5], 81 nM.
As for `Cc1cc(-c2c(-c3cccc(C#N)c3)nn3ccc(NC(=O)CC(C)(C)O)nc23)cc(C)n1` [Example 94.4, N-[2-(3-Cyanophenyl)-3-(2,6-dimethyl-4-pyridyl)pyrazolo[1,5-a]pyrimidin-5-yl]-3-hydroxy-3-methyl-butanamide], the IC50 in test [1] was 150 nM; in the test with human PBMCs it was 14 nM. The Ki was 13 nM in test [2], over 1000 nM in test [3], 1.7 nM in test [4] and 79 nM in test [5].
`Cc1cc(-c2c(-c3cccc(C#N)c3)nn3ccc(NC(=O)C(C)(C)O)nc23)cc(C)n1` [Example 94.5, N-[2-(3-cyanophenyl)-3-(2,6-dimethyl-4-pyridyl)pyrazolo[1,5-a]pyrimidin-5-yl]-2-hydroxy-2-methyl-propanamide]: the half-inhibitory concentration (IC50) in test [1] came to 590 nM; in the test on human PBMCs, 16 nM. Also, the Ki in test [2] is 20 nM; in test [3], over 1000 nM; in test [4], 3.7 nM; in test [5], 145 nM.
In the case of `Cc1cc(-c2c(-c3cccc(C#N)c3)nn3ccc(C(=O)NCCC(C)(C)N)nc23)cc(C)n1` [Example 96, N-(3-Amino-3-methyl-butyl)-2-(3-cyanophenyl)-3-(2,6-dimethyl-4-pyridyl)pyrazolo[1,5-a]pyrimidine-5-carboxamide], the IC50 in test [1] was 360 nM; in the test on human PBMCs it was 10 nM. The Ki in test [2] was 7 nM; in test [3], over 1000 nM; in test [4], 0.5 nM; in test [5], 143 nM.

The record behind these values is patent US20230203041A1, “ANTAGONISTS OF THE ADENOSINE A2A RECEPTOR” (AdoRx Therapeutics Limited, priority 2020, published 2023).
